Measured values reported in patent publication US11584737B2, “Heterocyclic compound” (TAKEDA PHARMACEUTICAL COMPANY LIMITED, priority 2018, dated 2023).

Key:
CDK12/CycK enzyme = CDK12/CycK enzyme (Homo sapiens, UniProt Q9NYV4); assay: Measurement of CDK12/CycK inhibitory activity (ULight-4E-BP1 peptide phosphorylation, LANCE); type: biochemical; conditions: inhibitory rate against CDK12/CycK at 1 μM test compound, ATP 10 μM or 500 μM
Protocol: Experimental Example 2: Measurement of CDK12/CycK Inhibitory Activity
A test compound dissolved in DMSO was added to a reaction solution (50 mM HEPES (pH 7.5), 10 mM MgCl2, 1 mM DTT, 0.01% Tween 20, 0.01% BSA) containing CDK12/CycK enzyme and ULight-labeled eIF4E-binding protein 1 (4E-BP1) (Thr37/Thr46) peptide (PerkinElmer), and the mixture was reacted at room temperature for 60 min. […] was added to give an ATP solution with a final concentration of 10 μM or 500 μM to start the enzyme reaction, and the mixture was reacted at room temperature for 60 min. A LANCE Detection buffer (PerkinElmer) containing europium-labeled anti-phosphorylation 4E-BP1 (Thr37/Thr46) antibody (PerkinElmer) and EDTA (final concentration 10 mM) was added to discontinue the reaction. After standing for 60 min, time decomposition fluorescence value (excitation 320 nm, emission 615 nm, 665 nm) was measured by Envision (PerkinElmer). The inhibitory rate (%) of the test compound against CDK12/CyclinK was calculated by the following formula. Inhibitory rate (%)=(1−(count of test compound−blank)÷(control−blank))×100
The count of the CDK12 enzyme reaction mixture under compound non-addition conditions is indicated as control, and the count under compound non-addition and CDK12/CycK enzyme non-addition conditions is indicated as blank.
The results measured by the above-mentioned method (inhibitory rate (%) of the signal value at 1 μM test compound relative to control is shown below.

A2780 cells = assay: In vitro proliferation suppression test (CellTiter-Glo); type: cell-based, human; conditions: A2780 cell proliferation inhibitory rate at 1 μM test compound, three days; for inhibition at 1 µM: Homo sapiens, 72 h
Protocol: Experimental Example 4: In Vitro Proliferation Suppression Test
The proliferation suppressive activity of compound in A2780 cells was evaluated by the following method.
A2780 cells were seeded in a 384-well white plate at a cell density of 1,000 cells/40 μL/well or a 96-well white plate at a cell density of 1,000 cells/90 μL/well using an assay medium (RPMI1640 medium containing 10% fetal bovine serum (FUJIFILM Wako Pure Chemical Corporation)) and incubated at 37° C. in 5% CO2.
The next day, a test compound dissolved in dimethyl sulfoxide (DMSO) was diluted with an assay medium, the obtained compound solution was added by 40 μL/well or 10 μL/well to each well of the plate containing A2780 cells and the mixture was incubated (test compound addition group). In addition, a similar reaction was performed without adding the test compound (test compound non-addition group).
Three days later, 80 μL or 100 μL of CellTiter-Glo reagent (Promega) was added, and the mixture was stirred for 10 min. Thereafter, the luminescence of each well was measured by ARVO-MX multilabel counter (Perkin Elmer Inc.).
The proliferation inhibitory rate (%) of each test compound against A2780 cells was calculated by the following calculation formula. Proliferation inhibitory rate (%)=(1−luminescence of test compound addition group÷luminescence of test compound non-addition group)×100
The A2780 cell proliferation inhibitory rate (%) of 1 μM test compound is shown below.

[1] = system: A2780 intracellular CTD pSer2; assay: CTD pSer2 measurement using human ovarian cancer cell A2780 and In-Cell Western method; type: cell-based; conditions: inhibitory rate against A2780 intracellular CTD pSer2 at 1 μM test compound, 4 hr
Protocol: Experimental Example 3: CTD pSer2 Measurement Using Human Ovarian Cancer Cell A2780 and In-Cell Western Method
A2780 cells (ATCC) were seeded in a 96 well plate at 1.8×10^4 cells/well, and the cells were cultured overnight in a cell culture medium RPMI1640 (FUJIFILM Wako Pure Chemical Corporation) containing 10% FBS (fetal bovine serum) and 1% penicillin/streptomycin. A test compound dissolved in a cell medium was added, and the mixture was stood for 4 hr in a CO2 incubator (37° C.). The cells were fixed with ALTFiX (Falma) for 30 min, and washed 3 times with a washing buffer (20 mM Tris-HCl (pH 7.5), 500 mM NaCl, 0.1% Tween20). 0.1% Triton-X-100 diluted with PBS(−) was added and the mixture was incubated at room temperature for 15 min. Thereafter, a blocking buffer (LI-COR) was added, and the mixture was incubated at room temperature for 1 hr. An anti-CTD pS2 antibody (Abcam) suspended in an antibody diluent (blocking buffer: PBS(−)-diluted 0.1% Tween20=1:1) was added, and the mixture was incubated at room temperature for 1 hr. The mixture was […] with a washing buffer, IRDye800CW-labeled anti-goat antibody (LI-COR) was added, and the mixture was incubated at room temperature for 1 hr. The mixture was washed 3 times with a washing buffer, and the fluorescence wavelength at 800 nm was measured by Aerius (LI-COR).
The inhibitory rate (%) of the test compound against A2780 intracellular CTD pSer2 was calculated by the following formula. Inhibitory rate (%)=(1−(count of test compound−blank)÷(control−blank))×100
The count of the A2780 cell under compound non-addition conditions is indicated as control, and the count under compound non-addition and primary antibody non-addition conditions is indicated as blank.
The results measured by the above-mentioned method (inhibitory rate of the signal value at 1 μM test compound relative to control) are shown below.

CDK12/CycK complex [2] = target: T1, CDK12/CycK complex (Homo sapiens, UniProt Q9NYV4); assay: Measurement of CDK12 inhibitory activity by binding assay (TR-FRET, 66 nM BODIPY-FL-labeled AT-7519); conditions: inhibitory rate against CDK12 at 1 μM test compound, 66 nM BODIPY-FL-labeled AT-7519, 2 nM CDK12/CycK
Protocol: Experimental Example 1: CDK12 Binding Assay
(3) Measurement of CDK12 Inhibitory Activity by Binding Assay
(§1) His-tagged CDK12/CycK complex was added to a binding assay buffer supplemented with BODIPY-FL labeled AT-7519, terbium-labeled streptavidin and biotin-labeled anti-histidine antibody, and the mixture was stood for not less than 60 min at room temperature. This solution was added to an assay plate containing a test compound dispensed therein, and the mixture was left standing for 120 min at room temperature. The final concentration of CDK12/CycK complex, BODIPY-FL-labeled AT-7519, terbium-labeled streptavidin and biotin-labeled anti-histidine antibody was set to 2 nM, 66 nM, 0.2 nM, and 0.4 nM, respectively. The fluorescence intensity derived from terbium and BODIPY-FL was measured using Envision. The signal value of each well was determined using the TR-FRET ratio calculated by the following formula. TR-FRET ratio=(fluorescence value of BODIPY-FL)÷(fluorescence value of terbium)
(§2) The inhibitory rate (%) of the test compound against CDK12 was calculated by the following formula. Inhibitory rate (%)=(1−(TR-FRET ratio of test compound−blank)÷(control−blank))×100
The TR-FRET ratio of the CDK12 enzyme reaction mixture under compound non-addition conditions is indicated as control, and the TR-FRET ratio under 3 μM AT-7519 addition conditions is indicated as blank.
The inhibitory rate of the test compound against CDK12 at […] is shown below.

CDK12/CycK complex [3] = target: T1, CDK12/CycK complex; assay: Measurement of CDK12 inhibitory activity by binding assay (BODIPY-FL labeled AT-7519 high concentration conditions, 1320 nM); conditions: inhibitory rate against CDK12 at 1 μM test compound, 1320 nM BODIPY-FL-labeled AT-7519, 8 nM CDK12/CycK
Protocol: (4) Measurement of CDK12 Inhibitory Activity by Binding Assay (BODIPY-FL Labeled AT-7519 High Concentration Conditions)
as §1, with “complex was blended with a binding” for “complex was added to a binding”, “biotin-labeled anti-histidine antibody. This solution” for “biotin-labeled anti-histidine antibody, and the mixture was stood for not less than 60 min at room temperature. This solution”, “set to 8 nM, 1320” for “set to 2 nM, 66”, “8 nM, 1320 nM, 0.2” for “2 nM, 66 nM, 0.2”
as §2
The TR-FRET ratio of the CDK12 enzyme reaction mixture under compound non-addition conditions is indicated as control, and the TR-FRET ratio under 30 μM AT-7519 addition conditions is indicated as blank.
The inhibitory rate of the test compound against CDK12 at 1 μM is shown below.

Sequence of CDK12/CycK enzyme (Q9NYV4 whole entry, species assumed): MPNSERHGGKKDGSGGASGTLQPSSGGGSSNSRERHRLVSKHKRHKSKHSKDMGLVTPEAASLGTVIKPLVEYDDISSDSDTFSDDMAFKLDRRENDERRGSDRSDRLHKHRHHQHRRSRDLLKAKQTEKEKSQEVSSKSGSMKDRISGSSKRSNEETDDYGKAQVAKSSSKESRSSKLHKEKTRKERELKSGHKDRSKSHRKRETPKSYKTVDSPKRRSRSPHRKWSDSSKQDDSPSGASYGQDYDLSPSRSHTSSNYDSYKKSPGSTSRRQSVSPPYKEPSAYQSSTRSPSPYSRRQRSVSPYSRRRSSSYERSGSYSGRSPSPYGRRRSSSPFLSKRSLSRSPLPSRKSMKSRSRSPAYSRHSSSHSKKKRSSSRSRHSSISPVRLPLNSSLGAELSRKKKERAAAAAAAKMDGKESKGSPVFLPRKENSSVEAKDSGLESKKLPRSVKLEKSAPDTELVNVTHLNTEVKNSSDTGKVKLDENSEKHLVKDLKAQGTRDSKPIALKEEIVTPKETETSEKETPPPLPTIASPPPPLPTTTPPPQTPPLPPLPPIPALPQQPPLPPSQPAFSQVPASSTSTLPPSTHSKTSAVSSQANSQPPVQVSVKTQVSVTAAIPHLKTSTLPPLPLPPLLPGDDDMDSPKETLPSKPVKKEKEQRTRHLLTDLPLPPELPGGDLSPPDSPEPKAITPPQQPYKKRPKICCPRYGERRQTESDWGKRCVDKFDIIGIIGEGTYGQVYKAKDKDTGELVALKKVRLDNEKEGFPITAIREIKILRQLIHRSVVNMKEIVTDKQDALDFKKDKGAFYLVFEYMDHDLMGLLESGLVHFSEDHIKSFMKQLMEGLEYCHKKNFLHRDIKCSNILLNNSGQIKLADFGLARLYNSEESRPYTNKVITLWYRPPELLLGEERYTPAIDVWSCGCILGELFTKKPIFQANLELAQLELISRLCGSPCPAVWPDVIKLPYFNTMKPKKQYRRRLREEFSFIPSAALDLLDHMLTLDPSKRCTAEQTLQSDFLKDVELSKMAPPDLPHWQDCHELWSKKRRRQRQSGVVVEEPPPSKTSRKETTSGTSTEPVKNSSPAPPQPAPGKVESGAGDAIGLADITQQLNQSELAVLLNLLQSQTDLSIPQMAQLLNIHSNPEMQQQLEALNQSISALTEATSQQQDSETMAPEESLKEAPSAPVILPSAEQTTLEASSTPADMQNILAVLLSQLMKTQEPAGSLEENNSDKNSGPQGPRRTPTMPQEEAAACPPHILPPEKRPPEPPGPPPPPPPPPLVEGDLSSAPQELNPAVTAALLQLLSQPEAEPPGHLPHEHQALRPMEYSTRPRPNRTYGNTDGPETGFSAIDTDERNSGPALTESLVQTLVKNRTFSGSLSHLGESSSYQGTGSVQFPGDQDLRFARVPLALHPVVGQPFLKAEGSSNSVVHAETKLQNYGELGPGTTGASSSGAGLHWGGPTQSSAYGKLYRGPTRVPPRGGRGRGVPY
Sequence of CDK12/CycK enzyme (O75909 whole entry partner, species assumed): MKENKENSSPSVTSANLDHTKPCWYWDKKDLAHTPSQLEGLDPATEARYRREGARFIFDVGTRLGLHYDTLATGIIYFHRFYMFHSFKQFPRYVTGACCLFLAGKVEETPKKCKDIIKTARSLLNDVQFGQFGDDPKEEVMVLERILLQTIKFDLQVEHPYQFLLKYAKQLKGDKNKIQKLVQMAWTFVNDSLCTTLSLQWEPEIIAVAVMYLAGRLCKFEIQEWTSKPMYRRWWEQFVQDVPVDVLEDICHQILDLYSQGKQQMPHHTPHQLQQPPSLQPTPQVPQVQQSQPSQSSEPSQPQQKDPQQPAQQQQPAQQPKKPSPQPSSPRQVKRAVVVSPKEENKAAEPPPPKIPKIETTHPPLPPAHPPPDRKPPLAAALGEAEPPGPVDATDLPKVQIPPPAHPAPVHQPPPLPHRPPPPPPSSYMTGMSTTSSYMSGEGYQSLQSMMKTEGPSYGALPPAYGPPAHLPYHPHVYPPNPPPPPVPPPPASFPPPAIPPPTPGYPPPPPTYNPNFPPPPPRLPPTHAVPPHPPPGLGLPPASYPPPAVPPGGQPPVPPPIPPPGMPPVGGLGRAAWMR
T1 sequence (Q9NYV4 whole entry, species assumed): as the sequence (Q9NYV4 whole entry, species assumed) above
T1 sequence (O75909 whole entry partner, species assumed): as the sequence (O75909 whole entry partner, species assumed) above

| inhibition at 1 µM (CDK12/CycK enzyme) | inhibition at 1 µM (CDK12/CycK complex [2]) | inhibition at 1 µM (CDK12/CycK complex [3]) | 1 μM inhibitory rate (%) (CDK12/CycK complex [3]) | SMILES | inhibition at 1 µM (A2780 cells) | inhibition at 1 µM [1] | 1 μM inhibitory rate (%) (A2780 cells) |
| --- | --- | --- | --- | --- | --- | --- | --- |
| 98% | 94% |  |  | Cn1cc(-c2ccc(N(C(=O)NCc3ccccc3)[C@H]3CC[C@H](Nc4ncc(C#N)c(NC5COC5)n4)CC3)nc2)cn1 [Example 319, 3-benzyl-1-(trans-4-((5-cyano-4-(oxetan-3-ylamino)pyrimidin-2-yl)amino)cyclohexyl)-1-(5-(1-methyl-1H-pyrazol-4-yl)pyridin-2-yl)urea] | 97% | 69% |  |
| 103% | 94% |  |  | Cc1cc(-c2nc(N[C@H]3CC[C@H](N(C(=O)NCc4ccccc4)c4ccc(-c5cnn(C)c5)cn4)CC3)ncc2C#N)[nH]n1 [Example 469, 3-benzyl-1-(trans-4-((5-cyano-4-(3-methyl-1H-pyrazol-5-yl)pyrimidin-2-yl)amino)cyclohexyl)-1-(5-(1-methyl-1H-pyrazol-4-yl)pyridin-2-yl) urea] | 97% | 62% |  |
|  |  |  | 108% | COc1ncc(-c2ccc(N(C(=O)OCCN(C)C)[C@H]3CC[C@H](Nc4ncc(C(F)(F)F)c(-c5cncc(S(C)(=O)=O)c5)n4)CC3)nc2)cn1 [Example 848, 2-(dimethylamino)ethyl (trans-4-((4-(5-(methanesulfonyl)pyridin-3-yl)-5-(trifluoromethyl)pyrimidin-2-yl)amino)cyclohexyl) (5-(2-methoxypyrimidin-5-yl)pyridin-2-yl)carbamate] |  |  | 99% |
|  |  | 109% |  | CCCC(=O)N(c1ccc(-c2cnc(OC)nc2)cn1)[C@H]1CC[C@H](Nc2ncc(C(F)(F)F)c(-c3cncc(S(C)(=O)=O)c3)n2)CC1 [Example 858, N-(trans-4-((4-(5-(methanesulfonyl)pyridin-3-yl)-5-(trifluoromethyl)pyrimidin-2-yl)amino)cyclohexyl)-N-(5-(2-methoxypyrimidin-5-yl)pyridin-2-yl)butanamide] | 99% |  |  |

Second part, the compound before the results:

| SMILES | inhibition at 1 µM (CDK12/CycK enzyme) | inhibition at 1 µM (CDK12/CycK complex [2]) | inhibition at 1 µM (CDK12/CycK complex [3]) | 1 μM inhibitory rate (%) (CDK12/CycK complex [3]) | inhibition at 1 µM (A2780 cells) | inhibition at 1 µM [1] | 1 μM inhibitory rate (%) (A2780 cells) |
| --- | --- | --- | --- | --- | --- | --- | --- |
| Cn1cc(-c2ccc(N(C(=O)NCc3ccccc3)[C@H]3CC[C@H](Nc4ncc(C#N)c(-c5cncc(S(C)(=O)=O)c5)n4)CC3)nc2)cn1 [Example 440, 3-benzyl-1-(trans-4-((5-cyano-4-(5-(methylsulfonyl)pyridin-3-yl)pyrimidin-2-yl)amino)cyclohexyl)-1-(5-(1-methyl-1H-pyrazol-4-yl)pyridin-2-yl) urea] | 101% | 99% |  |  | 98% | 54% |  |
| COc1ncc(-c2cnc(N(C(=O)OCC(C)(C)O)[C@H]3CC[C@H](Nc4ncc(C(F)(F)F)c(-c5cncc(S(C)(=O)=O)c5)n4)CC3)cn2)cn1 [Example 836, 2-hydroxy-2-methylpropyl (trans-4-((4-(5-(methanesulfonyl)pyridin-3-yl)-5-(trifluoromethyl)pyrimidin-2-yl)amino)cyclohexyl) (5-(2-methoxypyrimidin-5-yl)pyrazin-2-yl)carbamate] |  |  | 106% |  | 99% |  |  |
| Cn1cc(-c2cnc(N(C(=O)OCC(C)(C)O)[C@H]3CC[C@H](Nc4ncc(C(F)(F)F)c(-c5cncc(S(C)(=O)=O)c5)n4)CC3)cn2)cn1 [Example 838, 2-hydroxy-2-methylpropyl (trans-4-((4-(5-(methanesulfonyl)pyridin-3-yl)-5-(trifluoromethyl)pyrimidin-2-yl)amino)cyclohexyl) (5-(1-methyl-1H-pyrazol-4-yl)pyrazin-2-yl)carbamate] |  |  | 103% |  | 98% |  |  |
| COc1ncc(-c2cnc(N(C(=O)OCC(C)(C)O)[C@H]3CC[C@H](Nc4ncc(C(F)(F)F)c(-c5n[nH]cc5Cl)n4)CC3)cn2)cn1 [Example 841, 2-hydroxy-2-methylpropyl (trans-4-((4-(4-chloro-1H-pyrazol-3-yl)-5-(trifluoromethyl)pyrimidin-2-yl)amino)cyclohexyl) (5-(2-methoxypyrimidin-5-yl)pyrazin-2-yl)carbamate] |  |  | 79% |  | 99% |  |  |
| COc1ncc(-c2ccc(N(C(=O)NCC(C)(C)O)[C@H]3CC[C@H](Nc4ncc(C(F)(F)F)c(-c5ccn(C(F)F)n5)n4)CC3)nc2)cn1 [Example 849, 1-(trans-4-((4-(1-(difluoromethyl)-1H-pyrazol-3-yl)-5-(trifluoromethyl)pyrimidin-2-yl)amino)cyclohexyl)-3-(2-hydroxy-2-methylpropyl)-1-(5-(2-methoxypyrimidin-5-yl)pyridin-2-yl)urea] |  |  | 110% |  | 97% |  |  |
